Test results reported in patent US20110066134A1, “Controlling Drug Transport and Current in Iontophoretic Onychomycosis Treatment” (Nitric Biotherapeutics, Inc., priority 2009, published 2011).
Where “and” joins values, the source holds several entries; their conditions need not be identical. Equal entries are not always repeated.

Experiments:
[1] = Cadaver toe delivery testing: iontophoretic terbinafine loading into nail, nail bed and surrounding tissue; type: in vitro ADME
Experimental: The results of drug loading experiments in cadaver toes reported by Nair [Nair et al., 2009, Pharm Res. 26(9):2194-201] were compared with current measurements made using the current test fixture of FIG. 1 and models for the two tissue groups. The experiments disclosed herein were conducted to determine 1) if a drug delivery gradient existed in masked drape applications, and how that correlated with drug assays in cadaver toes; and 2) to determine the proportion of current flowing in soft tissue vs. into nail in cadaver toe delivery, and to compare that with drug loading found by Nair in the two tissue types. It is believed that the transfer efficiency is higher in nail than into soft tissue.
Cadaver Toe Delivery Testing: Six cadaver toes were soaked in physiologic saline prior to treatment. Each terbinafine loaded applicator type (masked drape and full drape) was placed on the toe and iontophoretic treatment of 0.5 mA for 20 min was delivered. Post treatment, the nails, and sections of nail bed and surrounding tissue, were excised and analyzed. The amount of loaded terbinafine was compiled for each section. The iontophoretic power source and general configuration for the applicator on the cadaver toe are depicted in FIGS. 2A and 2B. Additional details regarding methods used and experimental details for cadaver toe delivery tests can be found in [Nair et al., 2009, Pharm Res. 26(9):2194-201].
FIG. 3A depicts drug assay results from cadaver nails following iontophoresis using a masked drape applicator, while FIG. 3B depicts current measurements taken at the same current levels through cadaver nail into agarose. Terbinafine sample data was compiled allocating samples to the same relative spacing as current sensing nodes in the current test fixture of FIG. 1. […] Results of finite element analysis for essentially masked electrodes over tissue that illustrate gradients with higher resolution can also be seen as provided by Kresteva and Papazov [Krasteva et al., Biomed Eng Online. 2002 Dec. 16; 1:7].
where tx is the transport number, F is Faraday's constant, A is area of application and zx is charge. For a particular “membrane” or “tissue type”, tx is the ratio of (charge, mobility and drug concentration of the charge carrier) to the product of these for all charge carriers, i is current and vcx is an electroosmotic term. Rather than determine individual elements of Kalia's formula, an aggregate transport number of skin (tskin) and nail & nail bed (tnail) can be calculated, essentially aggregating the factors and segmenting them into soft tissue plus nail/nail bed.
Where l is the amount of drug loaded for skin or nail. For a given dose in uA-min, the amount of terbinafine loaded into cadaver nail & nail bed vs. cadaver skin vs. delivered dose and calculated transfer number is
ltotal=lskin+lnail,lskin=dskin×tskin and lnail=dnail×tnail in ug/mA-min, (5)
where dskin, dnail is the product of current through skin (or nail) and time (dose), tskin, tnail is an aggregate of all factors related to delivery into skin (or nail) and lskin, lnail is the amount of terbinafine loaded into skin (or nail).
Table III lists the areas of delivery, current and transfer number calculations for the 6 cadaver toe trials. FIG. 9 depicts the average transport numbers including values calculated for current (for reference), skin alone in Franz cell and Rat.

[2] = clinical; conditions: human, in vivo
Experimental: Both applicator designs were used in clinical studies, including clinical nail samples at various iontophoretic dose levels taken 24 hours post treatment. For an average dose of about 8 mA-min, drug amounts for masked drape clipping assays averaged about 423 ug/g and full drape clippings averaged about 842 ug/g. The clipping sizes and volumes varied (n=80, mean=[…], sd=1.8). The amount of drug found in nail clippings for the masked drape treatments appeared to be lower than expected given the higher current concentration in nail vs. levels found for the full drape treatments at a lower level of nail current.
It is believed that the lower drug levels found during the clinical study from nail clippings in the masked drape applications was the result of samples at the extremities of the nail. As contemplated herein, the presence of a drug delivery gradient is supported by the location of clinical nail samples, the results of current distribution modeling and the cadaver toe experiments.
For example, the current measurement and drug loading maps for cadaver nail and toe as depicted in FIG. 3 indicate a significant gradient. Drug loading at the periphery of the nail was about 26 to 77 times less than drug loading in the center of the nail. Nail clippings for the masked drape group in the clinical studies provided herein were taken about 24 hours post treatment from the distal nail. Samples varied in size and volume, but averaged about 1.8 mm long. This size and location corresponds with the nail sampling performed in the cadaver toe experiments in the category of “peripheral 2” or “remaining” and depicted in FIG. 3A in about the 9 to 12 mm range. The current levels predicted by the model in the same areas correlate well with drug distribution samples, r=0.998, p=0.000.
Applying the cadaver transfer number for nail vs. skin to the in-vivo results yields an estimate for nail and drug delivered for both tissues (based upon resistance ratios calculated from measured voltages during the clinical study.)
FIG. 10 depicts the projected delivery of terbinafine into skin and nail for full drape using cadaver transfer number calculation. The mean level of terbinafine estimated to have been delivered with full drape treatments to patients in the clinical studies using this method is about 12.4 ug skin, 9.4 ug nail, as compared with a mean of about 15 ug skin and 14 ug nail for cadaver toes.

[3] = cadaver toe, full drape, 0.5 mA for 20 min, average of 6 trials
[4] = cadaver toe, full drape, 0.5 mA for 20 min, individual Trials 1-6

## CN(C/C=C/C#CC(C)(C)C)Cc1cccc2ccccc12 [terbinafine]
[1]; [3]
  tf nail = (ug/cm^2)/(dose/cm^2), Avg: 5.180 (ug/cm^2)/(dose/cm^2)
  tf skin = (ug/cm^2)/(dose/cm^2), Avg: 2.181 (ug/cm^2)/(dose/cm^2)
[1]; [4]
  tf nail = (ug/cm^2)/(dose/cm^2): 6.358 (ug/cm^2)/(dose/cm^2) and 7.438 (ug/cm^2)/(dose/cm^2) and 3.805 (ug/cm^2)/(dose/cm^2) and 2.328 (ug/cm^2)/(dose/cm^2) and 3.917 (ug/cm^2)/(dose/cm^2) and 7.237 (ug/cm^2)/(dose/cm^2)
  tf skin = (ug/cm^2)/(dose/cm^2): 1.745 (ug/cm^2)/(dose/cm^2) and 1.632 (ug/cm^2)/(dose/cm^2) and 1.975 (ug/cm^2)/(dose/cm^2) and 2.368 (ug/cm^2)/(dose/cm^2) and 1.961 (ug/cm^2)/(dose/cm^2) and 3.403 (ug/cm^2)/(dose/cm^2)
[1]; cadaver toe, n=4, p=0.032
  aggregate transport number for the nail-only application compared with nail in the full drape application: less than the factor for nail in the full drape application
[1]; cadaver toes, about 0.5 mA for 20 min, p=0.78, n=6
  delivery into skin compared with nail & nail bed: statistical equivalence
[1]; cadaver toes, full drape
  mean terbinafine delivered to nail: ~14 µg
  mean terbinafine delivered to skin: about 15 ug
[2]
  mean level of terbinafine estimated to have been delivered to nail: ~9.4 µg
  mean level of terbinafine estimated to have been delivered to skin: about 12.4 ug
[2]; Mean Nail Levels, Applicator Design Nail/Skin
  concentration at 24 h: 988000 ng/g
[2]; average drug amount in full drape clippings
  concentration at 24 h: ~842000 ng/g
[2]; average drug amount in masked drape clipping assays
  concentration at 24 h: ~423000 ng/g
